{"source": "patent US20250213501A1", "about": "“IMPROVING SEMEN QUALITY” (CEUTICS HEALTH GMBH, priority 2022, published 2025)", "origin": "cited, not measured here", "key": {"[1]": {"details": "daily intake of 12 mg of spermidine provided in a plant extract (e.g., wheat germ extract)"}}}
{"smiles": "NCCCCNCCCN", "note": "[spermidine]", "values": [{"measurement": "NOAEL for a 70 kg person", "setting": "70 kg person", "result": 470, "unit": "mg/day"}, {"measurement": "NOAEL (No Observed Adverse Effect Level)", "setting": "Til et al., Food and Chemical Toxicology 1997", "result": 83, "unit": "mg/kg body weight/day"}, {"measurement": "safety of daily intake", "setting": "[1]", "result": "safe"}]}
